{"source": "patent US4593106A", "about": "“4-[2-(dialkylamino)ethyl]-7-hydroxyisatins” (SmithKline Beckman Corporation, priority 1984, dated 1986)", "key": {"D2": {"biological_target": "T1, D2 (Oryctolagus cuniculus, UniProt G1T1Q0)", "T1 construct": "perfused rabbit ear artery test; from tissue; host or cells: perfused rabbit ear artery (sympathetic nerve terminals)", "T1 sequence (G1T1Q0 1-443)": "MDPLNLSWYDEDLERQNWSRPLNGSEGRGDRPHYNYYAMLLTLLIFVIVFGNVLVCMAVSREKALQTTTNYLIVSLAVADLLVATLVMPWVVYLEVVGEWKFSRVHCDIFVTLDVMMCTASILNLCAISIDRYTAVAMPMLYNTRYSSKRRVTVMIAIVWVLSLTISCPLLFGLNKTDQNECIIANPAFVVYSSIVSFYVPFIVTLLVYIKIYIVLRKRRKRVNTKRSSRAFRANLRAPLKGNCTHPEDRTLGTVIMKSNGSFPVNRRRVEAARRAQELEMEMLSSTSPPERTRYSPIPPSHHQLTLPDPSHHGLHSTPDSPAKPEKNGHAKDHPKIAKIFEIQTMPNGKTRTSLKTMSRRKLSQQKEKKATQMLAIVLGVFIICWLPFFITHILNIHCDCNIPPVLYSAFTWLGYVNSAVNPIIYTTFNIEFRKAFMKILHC", "test": "perfused rabbit ear artery test for D2-agonist activity"}, "D2 -receptors": {"tested_on": "D2 -receptors", "test": "peripheral D2-agonist selectivity (general statement, no test named)", "details": "main locus of action at presynaptic dopaminergic receptors or sympathetic nerve terminals"}}, "note": "Read-outs that look alike come from different tables or passages of the source."}
{"smiles": "Br.CCCN(CCC)CCc1ccc(O)c2c1C(=O)C(=O)N2", "note": "[4-[2-(di-n-propylamino)ethyl]-7-hydroxyisatin hydrobromide]", "values": [{"measurement": "EC50", "setting": "D2", "value": "2 to 7", "unit": "nM"}, {"measurement": "selective peripheral D2-agonist", "setting": "D2 -receptors", "value": "selective peripheral D2 -agonists"}]}
{"smiles": "CCCN(CCC)CCc1ccc(O)c(O)c1", "note": "[N,N-di-n-propyldopamine, reference compound]", "values": [{"measurement": "EC50", "setting": "D2; perfused rabbit ear artery test, D2-agonist activity, read-out: EC50", "value": "50 to 60", "unit": "nM"}]}
